Data reported in ChEMBL document CHEMBL1201862, “PubChem BioAssay data set” (2004).
Active and inactive are the calls of the source.

Legend:
Escherichia coli = test: microbe, parasite or virus in culture
Aminopeptidase N = biological target: T1, Aminopeptidase N (Plasmodium falciparum FcB1/Columbia, UniProt O96935); test: malaria alanyl aminopeptidase activity blockers – biochemical, fluorogenic H-Leu-NHMec substrate, 1536-well (AID 1445); parameters: species or system Plasmodium falciparum 3D7, 3D7
T1 sequence (O96935 whole entry): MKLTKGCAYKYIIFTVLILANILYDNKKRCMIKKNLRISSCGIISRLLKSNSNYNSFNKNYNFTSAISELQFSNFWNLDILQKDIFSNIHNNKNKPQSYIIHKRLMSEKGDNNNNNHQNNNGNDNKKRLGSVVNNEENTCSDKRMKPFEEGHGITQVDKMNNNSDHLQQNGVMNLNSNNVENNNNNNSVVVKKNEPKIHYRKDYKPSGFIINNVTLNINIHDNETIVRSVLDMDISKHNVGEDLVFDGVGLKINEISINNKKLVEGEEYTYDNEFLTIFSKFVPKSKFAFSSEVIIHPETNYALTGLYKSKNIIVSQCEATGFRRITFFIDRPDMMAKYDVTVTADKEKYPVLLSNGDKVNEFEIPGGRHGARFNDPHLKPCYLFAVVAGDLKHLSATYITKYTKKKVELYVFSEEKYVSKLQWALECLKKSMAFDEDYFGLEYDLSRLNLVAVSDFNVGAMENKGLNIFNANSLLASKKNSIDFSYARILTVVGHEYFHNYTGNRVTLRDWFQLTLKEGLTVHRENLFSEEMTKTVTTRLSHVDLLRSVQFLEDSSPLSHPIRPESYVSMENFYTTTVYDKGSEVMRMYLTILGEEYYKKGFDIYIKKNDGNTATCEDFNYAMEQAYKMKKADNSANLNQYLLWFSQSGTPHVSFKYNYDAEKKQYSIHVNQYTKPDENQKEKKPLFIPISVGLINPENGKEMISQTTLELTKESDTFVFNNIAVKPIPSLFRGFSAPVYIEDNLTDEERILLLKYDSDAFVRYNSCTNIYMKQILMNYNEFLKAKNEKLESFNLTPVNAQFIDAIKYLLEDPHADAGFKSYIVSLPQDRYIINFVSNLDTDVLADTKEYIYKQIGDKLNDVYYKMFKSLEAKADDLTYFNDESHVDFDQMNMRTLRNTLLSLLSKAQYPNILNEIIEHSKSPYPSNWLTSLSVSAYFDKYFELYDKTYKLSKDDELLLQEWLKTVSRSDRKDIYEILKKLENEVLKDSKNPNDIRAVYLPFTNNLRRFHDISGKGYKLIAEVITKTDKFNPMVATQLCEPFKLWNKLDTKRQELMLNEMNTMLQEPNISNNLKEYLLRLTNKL

Leucine aminopeptidase = biological target: T2, Leucine aminopeptidase (Plasmodium falciparum 3D7, UniProt Q8IL11); test: P. falciparum M17LAP inhibitors, primary screen, biochemical, fluorogenic H-Leu-NHMec substrate, 1536-well (AID 1619); format: functional
T2 sequence (Q8IL11 whole entry): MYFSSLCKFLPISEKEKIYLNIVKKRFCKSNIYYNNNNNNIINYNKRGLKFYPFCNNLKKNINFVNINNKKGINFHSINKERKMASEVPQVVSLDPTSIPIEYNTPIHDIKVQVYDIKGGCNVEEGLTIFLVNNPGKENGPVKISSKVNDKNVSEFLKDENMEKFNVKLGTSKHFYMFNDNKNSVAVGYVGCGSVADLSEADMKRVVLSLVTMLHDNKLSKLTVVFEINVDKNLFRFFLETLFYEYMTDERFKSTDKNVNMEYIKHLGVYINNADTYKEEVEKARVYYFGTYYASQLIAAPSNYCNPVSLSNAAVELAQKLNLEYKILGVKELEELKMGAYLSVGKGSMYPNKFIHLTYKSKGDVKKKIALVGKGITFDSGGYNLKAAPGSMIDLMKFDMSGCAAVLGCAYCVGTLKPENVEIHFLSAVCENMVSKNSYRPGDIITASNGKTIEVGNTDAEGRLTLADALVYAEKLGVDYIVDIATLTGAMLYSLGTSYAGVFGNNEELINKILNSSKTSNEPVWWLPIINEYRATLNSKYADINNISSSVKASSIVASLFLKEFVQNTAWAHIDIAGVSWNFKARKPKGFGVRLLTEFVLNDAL

Beta-galactosidase = Beta-galactosidase (Escherichia coli, UniProt Q8VNN2); test: PubChem AID 485352; format: functional
[1] = biological target: T3, Type-1 angiotensin II receptor (Homo sapiens, UniProt P30556); test: antagonism of angiotensin II type 1 receptor – cell-based, uHTS hits, selectivity assay for APJ receptor antagonist project, dose response (AID 463214); format: functional;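 further: antagonist potency against angiotensin II stimulated AT1 response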
T3 sequence (P30556 whole entry): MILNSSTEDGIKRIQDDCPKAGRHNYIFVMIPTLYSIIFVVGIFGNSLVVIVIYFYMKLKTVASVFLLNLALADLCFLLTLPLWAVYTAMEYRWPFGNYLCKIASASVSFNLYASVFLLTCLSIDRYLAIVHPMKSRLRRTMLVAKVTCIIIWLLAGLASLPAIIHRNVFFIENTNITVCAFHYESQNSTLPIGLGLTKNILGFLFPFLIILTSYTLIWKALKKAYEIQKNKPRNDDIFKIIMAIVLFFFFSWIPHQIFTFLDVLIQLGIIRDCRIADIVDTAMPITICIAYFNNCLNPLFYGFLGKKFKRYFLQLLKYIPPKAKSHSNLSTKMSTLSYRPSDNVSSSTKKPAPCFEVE

[2] = biological target: Voltage-dependent T-type calcium channel subunit alpha-1H (Homo sapiens, UniProt O95180); format: functional;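 further: channel activity triggered by adding a high calcium stimulation buffer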
[3] = biological target: T4, Short transient receptor potential channel 4 (Mus musculus, UniProt Q9QUQ5); test: block of DAMGO-driven TRPC4 calcium entry – cell-based, HEK293 TRPC4/mu-opioid, Fluo-4 calcium, dose response (AID 434942); format: functional;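 further: potency of inhibitors blocking the TRPC4 calcium response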
T4 sequence (Q9QUQ5 whole entry): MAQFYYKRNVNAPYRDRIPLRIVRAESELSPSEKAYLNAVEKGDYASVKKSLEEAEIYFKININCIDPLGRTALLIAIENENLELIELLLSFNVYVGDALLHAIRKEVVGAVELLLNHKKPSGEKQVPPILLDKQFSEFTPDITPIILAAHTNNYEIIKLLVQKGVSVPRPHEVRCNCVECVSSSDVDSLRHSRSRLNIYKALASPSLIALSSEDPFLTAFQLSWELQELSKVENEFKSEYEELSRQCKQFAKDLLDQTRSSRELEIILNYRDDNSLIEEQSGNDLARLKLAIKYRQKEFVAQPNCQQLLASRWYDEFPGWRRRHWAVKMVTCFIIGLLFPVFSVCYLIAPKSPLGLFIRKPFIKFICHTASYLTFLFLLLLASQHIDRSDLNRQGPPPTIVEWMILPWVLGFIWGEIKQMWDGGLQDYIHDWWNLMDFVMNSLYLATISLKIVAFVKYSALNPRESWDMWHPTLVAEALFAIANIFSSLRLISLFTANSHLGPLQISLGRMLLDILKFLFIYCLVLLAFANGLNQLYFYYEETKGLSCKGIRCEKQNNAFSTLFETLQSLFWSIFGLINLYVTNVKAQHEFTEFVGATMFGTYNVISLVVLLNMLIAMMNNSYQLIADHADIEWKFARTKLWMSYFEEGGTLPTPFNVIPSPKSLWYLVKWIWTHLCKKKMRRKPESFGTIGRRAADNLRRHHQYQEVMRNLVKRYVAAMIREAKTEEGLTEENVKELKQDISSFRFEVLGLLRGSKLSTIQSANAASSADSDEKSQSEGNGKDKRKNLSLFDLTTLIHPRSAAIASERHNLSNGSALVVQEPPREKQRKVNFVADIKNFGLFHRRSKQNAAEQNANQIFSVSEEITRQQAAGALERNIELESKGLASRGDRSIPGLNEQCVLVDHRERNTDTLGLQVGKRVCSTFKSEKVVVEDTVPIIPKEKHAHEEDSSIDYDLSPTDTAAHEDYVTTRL

[4] = reduction of Shn3 3'UTR-driven luciferase in osteoblasts – cell-based, Clone20 osteoblasts, firefly luciferase, cherry-picked, dose response (AID 624132); format: functional;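 further: firefly luciferase luminescence from reporter carrying the Shn3 3'UTR in osteoblasts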
HEK293 [5] = test: cells; format: functional, cell-based; settings: Homo sapiens
HEK293 [6] = test: NOD2 signaling inhibitors in MDP-stimulated cells, cell-based, uHTS, luminescence (AID 2001); format: functional; settings: Homo sapiens
HEK293 [7] = test: inhibition of NOD1-driven NF-kB reporter – cell-based, luminescence, uHTS, primary screen (AID 1578); format: functional; settings: Homo sapiens
HEK293 [8] = test: cells; format: functional, cell-based; settings: Homo sapiens; remark: listed apart in the source
[9] = HEK-293T viability loss after treatment – luminescence, T-cell screen hits, cytotoxicity control for TCR NF-kB inhibitor project, dose response (AID 489026); format: functional, cell-based;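 further: cells exposed to compound about 14 hours before the viability readout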
HEK293 [10] = test: cells; format: functional, cell-based; settings: Homo sapiens; remark: listed apart in the source
[11] = loss of viability in HepG2 cells – cell-based, CellTiter-Glo, cherry-picked, cytotoxicity control for Shn3 inhibitor project, dose response (AID 624134); format: functional
[12] = biological target: Nucleotide-binding oligomerization domain-containing protein 2 (Homo sapiens, UniProt Q9HC29); test: inhibition of NOD2-driven NF-kB reporter – cell-based, luminescence, uHTS, HEK293 (AID 1566); format: functional
INS1 = test: INS-1E survival protection against cytokine death – cell-based, luminescence, retest, dose response (AID 449756); format: functional; settings: Rattus norvegicus;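 further: cell death triggered by IL-1 beta plus TNF-alpha plus IFN-gamma mixture; protective hits raise ATP signal compared with cytokine alone wells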
[13] = biological target: Alkaline phosphatase, placental type (Homo sapiens, UniProt P05187); test: human placental alkaline phosphatase inhibition – biochemical, luminescence, confirmation (AID 1512); format: functional
[14] = biological target: T5, Alkaline phosphatase, tissue-nonspecific isozyme (Homo sapiens, UniProt P05186); test: potency against alkaline phosphatase TNAP – biochemical, luminescent, dose response, SAR follow-up (AID 1056)
T5 sequence (P05186 whole entry): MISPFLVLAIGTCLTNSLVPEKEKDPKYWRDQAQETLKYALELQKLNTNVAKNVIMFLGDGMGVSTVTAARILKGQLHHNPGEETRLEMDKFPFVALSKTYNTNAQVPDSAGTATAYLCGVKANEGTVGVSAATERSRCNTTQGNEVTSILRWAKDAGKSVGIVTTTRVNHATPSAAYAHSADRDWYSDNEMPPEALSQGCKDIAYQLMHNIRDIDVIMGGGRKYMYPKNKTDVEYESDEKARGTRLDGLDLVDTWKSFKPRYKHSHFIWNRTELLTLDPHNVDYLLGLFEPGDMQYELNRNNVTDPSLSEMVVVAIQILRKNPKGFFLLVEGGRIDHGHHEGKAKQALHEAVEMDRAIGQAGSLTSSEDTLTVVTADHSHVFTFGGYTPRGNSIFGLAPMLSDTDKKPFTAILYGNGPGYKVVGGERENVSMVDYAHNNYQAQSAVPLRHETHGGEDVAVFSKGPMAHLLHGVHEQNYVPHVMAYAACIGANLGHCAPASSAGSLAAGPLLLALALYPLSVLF

Voltage-dependent T-type calcium channel subunit alpha-1H, sequence (O95180 whole entry): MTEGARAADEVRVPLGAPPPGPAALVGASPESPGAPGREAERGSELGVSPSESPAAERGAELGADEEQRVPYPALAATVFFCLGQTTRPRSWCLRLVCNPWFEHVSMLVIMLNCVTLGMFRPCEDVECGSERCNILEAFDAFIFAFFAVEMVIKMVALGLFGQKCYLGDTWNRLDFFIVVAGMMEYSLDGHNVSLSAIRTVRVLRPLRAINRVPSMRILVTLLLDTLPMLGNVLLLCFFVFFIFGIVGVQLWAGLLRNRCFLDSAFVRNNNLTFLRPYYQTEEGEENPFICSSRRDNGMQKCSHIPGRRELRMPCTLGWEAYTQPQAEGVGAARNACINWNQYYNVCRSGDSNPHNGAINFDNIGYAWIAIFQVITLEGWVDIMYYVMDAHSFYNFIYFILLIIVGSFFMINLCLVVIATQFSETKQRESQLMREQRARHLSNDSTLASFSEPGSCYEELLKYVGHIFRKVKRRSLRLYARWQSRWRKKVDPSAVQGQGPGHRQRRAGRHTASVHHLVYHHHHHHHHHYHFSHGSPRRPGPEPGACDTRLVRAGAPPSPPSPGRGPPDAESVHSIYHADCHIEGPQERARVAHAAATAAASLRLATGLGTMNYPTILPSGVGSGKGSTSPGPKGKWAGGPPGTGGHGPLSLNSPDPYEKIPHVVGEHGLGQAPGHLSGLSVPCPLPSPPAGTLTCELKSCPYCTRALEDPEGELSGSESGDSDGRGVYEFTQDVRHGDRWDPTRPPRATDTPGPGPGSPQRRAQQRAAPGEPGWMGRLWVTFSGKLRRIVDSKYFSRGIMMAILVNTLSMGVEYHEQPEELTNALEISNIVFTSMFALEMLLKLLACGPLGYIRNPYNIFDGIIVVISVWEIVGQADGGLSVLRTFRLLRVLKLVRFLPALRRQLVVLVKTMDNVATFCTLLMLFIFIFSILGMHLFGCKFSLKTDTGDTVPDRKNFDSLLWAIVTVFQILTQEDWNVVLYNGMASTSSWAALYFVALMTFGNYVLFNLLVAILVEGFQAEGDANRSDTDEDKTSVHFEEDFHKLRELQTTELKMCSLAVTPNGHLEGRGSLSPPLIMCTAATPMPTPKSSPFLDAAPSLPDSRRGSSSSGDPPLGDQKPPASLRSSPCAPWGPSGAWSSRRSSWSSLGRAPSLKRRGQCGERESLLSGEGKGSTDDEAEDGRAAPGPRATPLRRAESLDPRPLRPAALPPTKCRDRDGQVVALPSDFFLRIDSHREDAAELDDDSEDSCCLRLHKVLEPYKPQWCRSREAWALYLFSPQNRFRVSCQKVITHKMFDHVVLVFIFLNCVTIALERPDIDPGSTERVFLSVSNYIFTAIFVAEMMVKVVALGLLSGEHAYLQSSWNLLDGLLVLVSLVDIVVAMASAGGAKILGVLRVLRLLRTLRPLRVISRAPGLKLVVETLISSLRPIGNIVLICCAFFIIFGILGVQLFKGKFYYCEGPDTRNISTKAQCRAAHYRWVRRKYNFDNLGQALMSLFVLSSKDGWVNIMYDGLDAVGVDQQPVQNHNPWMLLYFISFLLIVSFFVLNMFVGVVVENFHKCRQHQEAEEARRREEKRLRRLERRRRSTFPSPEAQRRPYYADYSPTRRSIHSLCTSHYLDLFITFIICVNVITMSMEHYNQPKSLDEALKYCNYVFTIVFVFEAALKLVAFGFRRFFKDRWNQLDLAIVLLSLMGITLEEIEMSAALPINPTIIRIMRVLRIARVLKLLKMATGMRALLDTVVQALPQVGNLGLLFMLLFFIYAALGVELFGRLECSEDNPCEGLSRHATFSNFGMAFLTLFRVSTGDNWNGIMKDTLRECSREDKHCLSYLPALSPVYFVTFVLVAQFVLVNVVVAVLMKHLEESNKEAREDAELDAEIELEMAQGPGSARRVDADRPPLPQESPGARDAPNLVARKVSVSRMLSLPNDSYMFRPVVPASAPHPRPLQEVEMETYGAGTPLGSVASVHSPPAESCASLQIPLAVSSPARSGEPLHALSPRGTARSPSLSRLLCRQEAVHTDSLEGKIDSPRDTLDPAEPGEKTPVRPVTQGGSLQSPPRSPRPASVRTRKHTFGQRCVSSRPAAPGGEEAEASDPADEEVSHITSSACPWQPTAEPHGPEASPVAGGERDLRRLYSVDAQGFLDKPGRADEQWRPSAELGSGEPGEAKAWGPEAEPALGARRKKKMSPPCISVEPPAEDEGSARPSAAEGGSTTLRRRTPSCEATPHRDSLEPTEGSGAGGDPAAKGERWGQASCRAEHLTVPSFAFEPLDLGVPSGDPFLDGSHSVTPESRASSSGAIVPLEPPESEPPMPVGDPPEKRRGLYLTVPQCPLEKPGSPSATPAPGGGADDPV
Beta-galactosidase, sequence (Q8VNN2 whole entry): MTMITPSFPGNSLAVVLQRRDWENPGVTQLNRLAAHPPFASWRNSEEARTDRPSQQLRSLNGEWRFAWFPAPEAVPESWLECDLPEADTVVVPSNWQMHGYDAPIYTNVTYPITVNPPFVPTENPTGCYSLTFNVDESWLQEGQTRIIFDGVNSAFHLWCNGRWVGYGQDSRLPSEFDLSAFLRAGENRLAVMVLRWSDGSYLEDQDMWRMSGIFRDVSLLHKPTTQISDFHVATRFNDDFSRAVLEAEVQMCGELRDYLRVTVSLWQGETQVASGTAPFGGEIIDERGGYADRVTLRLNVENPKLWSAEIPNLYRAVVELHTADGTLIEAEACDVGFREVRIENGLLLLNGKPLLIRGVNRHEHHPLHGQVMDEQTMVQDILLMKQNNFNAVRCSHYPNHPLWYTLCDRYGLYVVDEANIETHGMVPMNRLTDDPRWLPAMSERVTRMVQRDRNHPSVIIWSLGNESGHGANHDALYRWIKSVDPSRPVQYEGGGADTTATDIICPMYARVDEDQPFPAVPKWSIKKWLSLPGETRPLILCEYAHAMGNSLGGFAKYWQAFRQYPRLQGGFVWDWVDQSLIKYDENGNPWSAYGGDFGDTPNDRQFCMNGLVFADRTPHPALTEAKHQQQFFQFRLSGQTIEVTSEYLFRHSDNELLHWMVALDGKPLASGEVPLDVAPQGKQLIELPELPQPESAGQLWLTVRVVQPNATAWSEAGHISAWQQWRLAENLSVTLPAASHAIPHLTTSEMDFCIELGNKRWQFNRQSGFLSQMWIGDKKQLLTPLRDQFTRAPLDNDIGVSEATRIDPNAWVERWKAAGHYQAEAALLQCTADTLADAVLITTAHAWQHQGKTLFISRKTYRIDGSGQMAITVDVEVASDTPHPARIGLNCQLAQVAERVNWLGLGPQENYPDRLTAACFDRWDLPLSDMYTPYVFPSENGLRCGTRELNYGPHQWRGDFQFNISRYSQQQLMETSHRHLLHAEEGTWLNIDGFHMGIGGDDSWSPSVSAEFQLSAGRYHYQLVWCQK
Alkaline phosphatase, placental type, sequence (P05187 whole entry): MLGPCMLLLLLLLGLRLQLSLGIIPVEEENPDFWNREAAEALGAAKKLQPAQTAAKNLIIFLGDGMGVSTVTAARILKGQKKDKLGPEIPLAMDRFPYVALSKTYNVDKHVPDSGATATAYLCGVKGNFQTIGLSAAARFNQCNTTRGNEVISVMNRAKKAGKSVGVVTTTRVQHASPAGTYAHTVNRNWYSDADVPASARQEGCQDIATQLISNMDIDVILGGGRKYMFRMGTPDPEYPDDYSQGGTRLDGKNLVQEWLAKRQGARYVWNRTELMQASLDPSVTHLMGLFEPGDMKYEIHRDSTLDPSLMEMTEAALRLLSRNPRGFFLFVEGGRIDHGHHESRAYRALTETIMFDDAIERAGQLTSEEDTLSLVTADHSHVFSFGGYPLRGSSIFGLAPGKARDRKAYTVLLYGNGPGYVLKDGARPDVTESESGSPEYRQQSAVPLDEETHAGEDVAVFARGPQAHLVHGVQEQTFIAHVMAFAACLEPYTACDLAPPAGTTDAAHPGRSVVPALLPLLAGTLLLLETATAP
Nucleotide-binding oligomerization domain-containing protein 2, sequence (Q9HC29 whole entry, the tested form may be a part): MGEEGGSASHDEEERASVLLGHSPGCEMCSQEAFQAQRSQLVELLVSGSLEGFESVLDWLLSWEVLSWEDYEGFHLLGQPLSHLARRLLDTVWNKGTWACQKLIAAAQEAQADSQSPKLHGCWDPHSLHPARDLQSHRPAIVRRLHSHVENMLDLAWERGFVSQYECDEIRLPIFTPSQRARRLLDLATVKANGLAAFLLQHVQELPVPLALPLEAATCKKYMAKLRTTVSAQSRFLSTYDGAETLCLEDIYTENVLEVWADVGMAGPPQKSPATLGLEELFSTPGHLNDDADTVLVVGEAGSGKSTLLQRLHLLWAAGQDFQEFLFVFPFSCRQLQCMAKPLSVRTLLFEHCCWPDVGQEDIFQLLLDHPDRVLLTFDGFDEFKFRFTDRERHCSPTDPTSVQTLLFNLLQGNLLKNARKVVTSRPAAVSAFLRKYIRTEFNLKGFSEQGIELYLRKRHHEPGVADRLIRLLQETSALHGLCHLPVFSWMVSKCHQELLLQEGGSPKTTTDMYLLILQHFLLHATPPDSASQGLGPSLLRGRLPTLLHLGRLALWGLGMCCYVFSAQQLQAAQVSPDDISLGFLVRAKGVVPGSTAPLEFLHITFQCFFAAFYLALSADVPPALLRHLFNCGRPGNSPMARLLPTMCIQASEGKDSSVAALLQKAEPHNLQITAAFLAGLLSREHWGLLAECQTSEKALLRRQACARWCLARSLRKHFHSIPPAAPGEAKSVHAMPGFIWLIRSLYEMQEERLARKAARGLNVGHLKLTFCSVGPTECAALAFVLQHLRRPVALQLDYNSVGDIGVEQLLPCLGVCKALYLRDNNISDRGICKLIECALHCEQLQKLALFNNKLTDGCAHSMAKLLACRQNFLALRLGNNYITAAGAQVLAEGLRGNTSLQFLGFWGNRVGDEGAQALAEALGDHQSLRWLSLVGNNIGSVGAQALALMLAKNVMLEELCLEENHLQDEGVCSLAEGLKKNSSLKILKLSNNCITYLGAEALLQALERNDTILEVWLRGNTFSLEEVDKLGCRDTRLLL

## COCCN(C(S)=Nc1c(C)cc(C)cc1C)C(C)c1cccnc1 (stereo not drawn)
Escherichia coli
  AC50: 57.7 µM (active)

## COc1cc(NC(=O)CSc2ncnc3scc(-c4ccccc4)c23)c(C(=O)O)cc1OC
Aminopeptidase N
  IC50: 40.1 µM (active)
Leucine aminopeptidase
  IC50: < 1 µM (active)

## Cc1ccc(N=C2C(=O)Nc3c(C)cccc32)cc1
Beta-galactosidase
  EC50: > 40 µM (inactive)
[1]
  IC50: > 40 µM (not active)

## CC(C)(C)n1nnnc1CN(Cc1ccc(F)cc1)Cc1ccco1
[2]
  EC50: 6.27 µM (active)

## O=C(CCCSc1nc2ccccc2[nH]1)NCc1ccccc1Cl
[3]
  EC50: 3.76 µM (active)

## CN1CCN(c2nc3c(c(=O)n(C)c(=O)n3C)n2CC(=O)C23CC4CC(CC(C4)C2)C3)CC1
[3]
  EC50: 2.11 µM (active)

## COc1ccc(NS(=O)(=O)c2ccc(-c3cnc(C4CC4)o3)cc2)cc1OC
[4]
  AC50: 1.33 µM (active)
HEK293 [5]
  IC50: 6.05 µM (active)
HEK293 [6]
  IC50: 6.25 µM (active)
HEK293 [7]
  EC50: 2.04 µM (active)
HEK293 [8]
  IC50: > 20 µM (inactive)
[9]
  IC50: > 80 µM (inactive)
HEK293 [10]
  IC50: 18.4 µM (active)
[11]
  AC50: 2.32 µM (active)
[12]
  EC50: 14.4 µM (active)
INS1
  AC50: 3.52 µM (active)

## O=C(COC(=O)CCc1ccc(S(=O)(=O)N2CCCCC2)cc1)Nc1ccc2c(c1)OCO2
[2]
  EC50: 26.4 µM (active)

## CN1CCN(Cc2nc3ccccc3c(=O)n2Cc2nc(-c3cccc([N+](=O)[O-])c3)cs2)CC1
Aminopeptidase N
  IC50: 79.7 µM (active)

## O=C(CSc1nc2ccccc2o1)c1ccc(O)c(O)c1
[13]
  IC50: 3.06 µM (active)
[14]
  IC50: 4.15 µM (active)

## CCOC(=O)C1(c2ccccc2)CCN(CC(=O)Nc2ccc(C)cc2)CC1
[3]
  EC50: 2.99 µM (active)
